Experimental findings from patent US20260125649A1, “MEDIUM COMPOSITION AND METHOD FOR CULTURING MESENCHYMAL STEM CELLS” (ACADEMIA SINICA, priority 2018, published 2026) are described below.

Assay type in all cases: cell-based, human
Experiment [1] relates to STAT3 (Tyr705). In words: STAT3 phosphorylation by Western blotting. The protocol: After treatment, the protein levels of total STAT3 and phospho-STAT3 (Tyr705) were examined by Western blotting. […] Cell cycle progression was investigated by flow cytometry with PI staining. Fraction of cells in each phase (G1, S, G2/M) of the cell cycle was evaluated. Cells expressing STAT3 shRNA were treated with EpEX for 18 h, after which cell cycle progression was investigated by flow cytometry with PI staining. Fraction of cells in each phase (G1, S, G2/M) of the cell cycle was evaluated. […] The protein levels of cell cycle regulators (cyclin D1, cyclin D2, cyclin E1, CDK4 and CDK9) and pluripotency factors (Oct4, Sox2, c-Myc, Lin28) were examined by Western blotting. MSCs expressing STAT3 shRNA or shLuc were stimulated with EpEX. After treatment, the protein levels of cell cycle regulators (cyclin D1, cyclin D2, cyclin E1, CDK4 and CDK9) and pluripotency factors (Oct4, Sox2, c-Myc, and Lin 28) were examined by Western blotting. […] After treatment, the gene expression of pluripotency factors (Oct4, Sox2, c-Myc, Lin28 and EpCAM) was examined by qPCR.
FIG. 8. EpEX and EGF induce the phosphorylation of EGFR and STAT3. […] The phosphorylation of EGFR (Tyr845) and STAT3 (Tyr705) were examined by Western blotting with specific antibodies.
Western blotting was performed as previously described (Takahashi et al., 2003). […]
Background: A western blot detects proteins with antibodies after separation by electrophoresis.

Experiment [2] deals with cyclin A2, cyclin D1, cyclin D2, cyclin D3, cyclin E1, CDK4, CDK9, Oct4, Sox2, c-Myc, Lin28. In words: Western blotting of cell cycle regulators and pluripotency factors in MSCs. The conditions noted are these: pretreatment, then EpEX. The protocol:
The proliferation of MSCs was examined by measuring doubling time. MSCs were treated with EpEX (3 μg/mL) for 24 and 48 h. Cell number was counted and then doubling time was calculated. MSCs were treated with EpEX (3 μg/mL) for the indicated times. After treatment, protein expression of cell cycle regulators (cyclin D1, cyclin D2, cyclin D3, cyclin E1, CDK4 and CDK9) and pluripotency factors (Oct4, Sox2, c-Myc, and Lin28) was examined by Western blotting.
Phospho-EGFR (Tyr845) was detected by Western blotting. […] After treatment, cell cycle progression was investigated by flow cytometry with PI staining. Fraction of cells in each phase (G1, S, G2/M) of the cell cycle was evaluated. Cells that expressed EGFR shRNA or shLuc were treated with EpEX for 18 h. After treatment, cell cycle progression was investigated by flow cytometry with PI staining. Fraction of cells in each phase (G1, S, G2/M) of the cell cycle was evaluated. […]
After treatment, the protein levels of total STAT3 and phospho-STAT3 (Tyr705) were examined by Western blotting. […] Fraction of cells in each phase (G1, S, G2/M) of the cell cycle was evaluated. […] Fraction of cells in each phase (G1, S, G2/M) of the cell cycle was evaluated. […]
The expression of let-7 was detected by qPCR. […] The expression of let-7 was detected by qPCR. […]

Experiment [3] has as its system MSCs. In words: Cell cycle progression by flow cytometry with PI staining. The note with it: inhibitor pretreatment (AG1478 25 μM, 30 min; WP1066 5 μM), then EpEX 18 h. The protocol:
Phospho-EGFR (Tyr845) was detected by Western blotting. […] After treatment, cell cycle progression was investigated by flow cytometry with PI staining. Fraction of cells in each phase (G1, S, G2/M) of the cell cycle was evaluated. Cells that expressed EGFR shRNA or shLuc were treated with EpEX for 18 h. After treatment, cell cycle progression was investigated by flow cytometry with PI staining. Fraction of cells in each phase (G1, S, G2/M) of the cell cycle was evaluated. […] The protein expression of cell cycle regulators (cyclin D1, cyclin D2, cyclin E1) and pluripotency factors (Oct4, Sox2, c-Myc, Lin28) was examined by Western blotting. MSCs expressing EGFR shRNA were stimulated by EpEX. After treatment, the protein expression of cell cycle regulators (cyclin D1, cyclin E1, CDK4 and CDK9) and pluripotency factors (Oct4, in Sox2, c-Myc, and Lin 28) was examined by Western blotting. […] After treatment, the gene expression of pluripotency factors (Oct4, Sox2, c-Myc, Lin28 and EpCAM) was examined by qPCR.
After treatment, the protein levels of total STAT3 and phospho-STAT3 (Tyr705) were examined by Western blotting. […] Cell cycle progression was investigated by flow cytometry with PI staining. Fraction of cells in each phase (G1, S, G2/M) of the cell cycle was evaluated. […] Fraction of cells in each phase (G1, S, G2/M) of the cell cycle was evaluated. […]
In general terms: A flow cytometer gives signals particle by particle.

Experiment [4] concerns TACE (Ser435), PS2 (Ser327), ERK1/2. As to the kind of experiment: Western blotting of phosphorylation of TACE, Presenilin 2 and ERK1/2. The note with it: addition of EGFR inhibitor. The protocol: FIG. 9. EpEX induces the phosphorylation and activity of TACE and γ-secretase. MSCs were stimulated by EpEX for the indicated times, and the activity of TACE and γ-secretase were detected. MSCs were stimulated by EpEX (3 μg/mL) for the indicated times. Western blot analysis was performed to detect the phosphorylation of TACE and Presenilin 2.
FIG. 10. EpEX and EGF induce the phosphorylation of TACE, ERK1/2 and PS2. MSCs were treated with either EGF, EpEX, or co-treated with EGF and EpEX for 5 min. The phosphorylation of ERK1/2 was examined by Western blotting with specific antibodies. […] The phosphorylation of ERK1/2, TACE (Ser435), PS2 (Ser327) were examined by Western blotting with specific antibodies.
Western blotting was performed as previously described (Takahashi et al., 2003). Cells were lysed in lysis buffer (150 mM NaCl, 50 mM Tris-HCl (pH 7.4), 1% Nonidet P-40), containing a protease inhibitor mix (Roche Applied Science). Nuclear fractions and cytoplasmic fractions were separated by the Nuclear/Cytosol Fractionation Kit according to the manufacturer's instructions (BioVision Inc., Milpitas, CA, USA). Protein samples were separated by SDS-PAGE under denaturing conditions, and transferred to a PVDF membrane (Millipore). […]

As for EGF: cognate ligand for EGFR, the STAT3 phosphorylation entry in experiment [1] (MSCs treated with the substance) was “can induce”.
In the case of `COc1cc2ncnc(Nc3cccc(Cl)c3)c2cc1OC` [AG1478, reference compound], in experiment [2], the “effect on EpEX-induced protein expression of cell cycle regulators and pluripotency markers” value was “abolished”. Besides, the “effect on activation of STAT3 by either EGF or EpEX” value in experiment [1] (pretreatment with AG1478) was “can attenuate”. Moreover, in experiment [3], the “effect on EpEX-induced cell cycle progression” value is “attenuated”. Also, in experiment [4], the “effect on EpEX-induced phosphorylation of TACE” value is on record as “can be abolished” and the “effect on EpEX-induced phosphorylation of presenilin-2” value is listed as “can be abolished”.
Regarding `C[C@H](NC(=O)/C(C#N)=C/c1cccc(Br)n1)c1ccccc1` [WP1066, reference compound], the “effect on EpEX-induced protein expression of cell cycle regulators and pluripotency markers” value in experiment [2] was “blocked”. Further, the “effect on EpEX-induced cell cycle progression” value in experiment [3] is recorded as “attenuated”.
